From patent US4684664A, “Derivatives of β-(4-isocyano-1,2,3,4-diepoxycyclopentyl) acrylic acid” (Kureha Kagaku Kogyo Kabushiki Kaisha, priority 1984, dated 1987)
Values after ≈ are worked out from the molar mass of the structure shown.

What was measured:
Type in all cases: cell-based
[1] = test system: Staphylococcus aureus FDA 209PJc-1; experiment: Antibacterial activity, agar-dilution MIC, organism No. 1; conditions: Staphylococcus aureus, FDA209PJC1, read-out: Minimum Inhibitory Concentration
How it was run: (§1)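 MICs were determined by agar dilution on bouillon-agar medium. The value is the minimum concentration of specimen inhibiting growth, expressed as μg/ml of culture medium.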

[2] = test system: Staphylococcus aureus Terajima; experiment: Antibacterial activity, agar-dilution MIC, organism No. 2; conditions: Staphylococcus aureus, read-out: Minimum Inhibitory Concentration
How it was run: as §1

[3] = test system: Staphylococcus aureus MS 353; experiment: Antibacterial activity, agar-dilution MIC, organism No. 3; conditions: Staphylococcus aureus, MS353, read-out: Minimum Inhibitory Concentration
How it was run: as §1

[4] = test system: Streptococcus pyogenes Cook; experiment: Antibacterial activity, agar-dilution MIC, organism No. 4; conditions: Streptococcus pyogenes, read-out: Minimum Inhibitory Concentration
How it was run: as §1

[5] = test system: Escherichia coli NIHJ-JC-2; experiment: Antibacterial activity, agar-dilution MIC, organism No. 5; conditions: Escherichia coli, NIHJJC2, read-out: Minimum Inhibitory Concentration
How it was run: as §1

[6] = test system: Escherichia coli K12 C600 IAM 1264; experiment: Antibacterial activity, agar-dilution MIC, organism No. 6; conditions: Escherichia coli, IAM1264, read-out: Minimum Inhibitory Concentration
How it was run: as §1

[7] = test system: Klebsiella pneumoniae PCI-602; experiment: Antibacterial activity, agar-dilution MIC, organism No. 7; conditions: Klebsiella pneumoniae, PCI602, read-out: Minimum Inhibitory Concentration
How it was run: as §1

[8] = test system: Salmonella typhimurium IID 971; experiment: Antibacterial activity, agar-dilution MIC, organism No. 8; conditions: Salmonella enterica, read-out: Minimum Inhibitory Concentration
How it was run: as §1

Salmonella typhi 901 = experiment: Antibacterial activity, agar-dilution MIC, organism No. 9; conditions: Salmonella enterica, TYPHI, read-out: Minimum Inhibitory Concentration
How it was run: as §1

[9] = test system: Salmonella paratyphi-A 1015; experiment: Antibacterial activity, agar-dilution MIC, organism No. 10; conditions: Salmonella enterica, PARATYPHI, read-out: Minimum Inhibitory Concentration
How it was run: as §1

[10] = test system: Salmonella shottmuelleri 8006; experiment: Antibacterial activity, agar-dilution MIC, organism No. 11; conditions: Salmonella, 8006, read-out: Minimum Inhibitory Concentration
How it was run: as §1

[11] = test system: Salmonella enteritidis G 14; experiment: Antibacterial activity, agar-dilution MIC, organism No. 12; conditions: Salmonella enterica, ENTERITIDIS, read-out: Minimum Inhibitory Concentration
How it was run: as §1

[12] = test system: Serratia marcescens IAM 1184; experiment: Antibacterial activity, agar-dilution MIC, organism No. 13; conditions: Serratia marcescens, IAM1184, read-out: Minimum Inhibitory Concentration
Text: Agar-dilution method was used for determination of the antibacterial activity and antifungal activity while using bouillon-agar culture medium, and the minimum inhibitory concentration of the specimen was expressed by μg/ml of the culture medium.

[13] = test system: Bacillus subtilis ATCC 6633; experiment: Antibacterial activity, agar-dilution MIC, organism No. 14; conditions: Bacillus subtilis, ATCC6633, read-out: Minimum Inhibitory Concentration
How it was run: as §1

[14] = test system: Pseudomonas aeruginosa IFO 3445; experiment: Antibacterial activity, agar-dilution MIC, organism No. 15; conditions: Pseudomonas aeruginosa, IFO3445, read-out: Minimum Inhibitory Concentration
How it was run: as §1

[15] = test system: Pseudomonas aeruginosa NCTC 10490; experiment: Antibacterial activity, agar-dilution MIC, organism No. 16; conditions: Pseudomonas aeruginosa, NCTC10490, read-out: Minimum Inhibitory Concentration
How it was run: as §1

[16] = test system: Pseudomonas aeruginosa PAO 1; experiment: Antibacterial activity, agar-dilution MIC, organism No. 17; conditions: Pseudomonas aeruginosa, PAO1, read-out: Minimum Inhibitory Concentration
How it was run: as §1

[17] = test system: Proteus morganii IFO 3848; experiment: Antibacterial activity, agar-dilution MIC, organism No. 18; conditions: Morganella morganii, IFO3848, read-out: Minimum Inhibitory Concentration
How it was run: as §1

[18] = test system: Proteus mirabilis IFO 3849; experiment: Antibacterial activity, agar-dilution MIC, organism No. 19; conditions: Proteus mirabilis, IFO3849, read-out: Minimum Inhibitory Concentration
How it was run: as §1

Proteus vulgaris OX-19 = experiment: Antibacterial activity, agar-dilution MIC, organism No. 20; conditions: Proteus vulgaris, OX19, read-out: Minimum Inhibitory Concentration
How it was run: as §1

Proteus vulgaris HX-19 = experiment: Antibacterial activity, agar-dilution MIC, organism No. 21; conditions: Proteus vulgaris, HX19, read-out: Minimum Inhibitory Concentration
How it was run: as §1

[19] = test system: Proteus rettgeri IFO 3850; experiment: Antibacterial activity, agar-dilution MIC, organism No. 22; conditions: Providencia rettgeri, IFO3850, read-out: Minimum Inhibitory Concentration
How it was run: as §1

[20] = test system: Enterobacter aerogenes ATCC 13048; experiment: Antibacterial activity, agar-dilution MIC, organism No. 23; conditions: Klebsiella aerogenes, ATCC13048, read-out: Minimum Inhibitory Concentration
How it was run: as §1

Enterobacter cloacae 963 = experiment: Antibacterial activity, agar-dilution MIC, organism No. 24; conditions: Enterobacter cloacae, 963, read-out: Minimum Inhibitory Concentration
How it was run: as §1

[21] = test system: Micrococcus luteus ATCC 9341; experiment: Antibacterial activity, agar-dilution MIC, organism No. 25; conditions: Micrococcus luteus, ATCC9341, read-out: Minimum Inhibitory Concentration
How it was run: as §1

[22] = test system: Streptococcus pyogenes IFO 3340; experiment: Antibacterial activity, agar-dilution MIC, organism No. 26; conditions: Streptococcus pyogenes, IFO3340, read-out: Minimum Inhibitory Concentration
How it was run: as §1

[23] = test system: Streptococcus faecium IFO 3826; experiment: Antibacterial activity, agar-dilution MIC, organism No. 27; conditions: Enterococcus faecium, IFO3826, read-out: Minimum Inhibitory Concentration
How it was run: as §1

[24] = test system: Candida albicans IAM 4905; experiment: Antifungal activity, agar-dilution MIC, organism No. 29; conditions: Candida albicans, IAM4905, read-out: Minimum Inhibitory Concentration
How it was run: as §1

[25] = test system: Aspergillus niger IFO 6342; experiment: Antifungal activity, agar-dilution MIC, organism No. 30; conditions: Aspergillus niger, IFO6342, read-out: Minimum Inhibitory Concentration
How it was run: as §1

Compound | MIC [1] | MIC [2] | MIC [3] | MIC [4] | MIC [5] | MIC [6] | MIC [7] | MIC [8] | MIC (Salmonella typhi 901) | MIC [9] | MIC [10] | MIC [11] | MIC [12] | MIC [13] | MIC [14] | MIC [15] | MIC [16] | MIC [17] | MIC [18] | MIC (Proteus vulgaris OX-19) | other results
[C-]#[N+]C12CC3(/C=C/C(=O)Nc4ccc(OC)cc4)OC3C1O2 (stereo not shown) [compound 53] | < 0.05 µg/mL | < 0.05 µg/mL | < 0.05 µg/mL | 6.25 µg/mL (≈ 21 µM) | 12.5 µg/mL (≈ 41.9 µM) | 3.13 µg/mL (≈ 10.5 µM) | < 0.05 µg/mL | 1.56 µg/mL (≈ 5.23 µM) | 0.39 µg/mL (≈ 1.31 µM) | < 0.05 µg/mL | < 0.05 µg/mL | 0.39 µg/mL (≈ 1.31 µM) | 25 µg/mL (≈ 83.8 µM) | 6.25 µg/mL (≈ 21 µM) | > 200 µg/mL | > 200 µg/mL | > 200 µg/mL | < 0.05 µg/mL | 3.13 µg/mL (≈ 10.5 µM) | < 0.05 µg/mL | MIC (Proteus vulgaris HX-19): < 0.05 µg/mL; MIC [19]: 0.78 µg/mL (≈ 2.61 µM); MIC [20]: > 200 µg/mL; MIC (Enterobacter cloacae 963): 50 µg/mL (≈ 168 µM); MIC [21]: < 0.05 µg/mL; MIC [22]: 0.39 µg/mL (≈ 1.31 µM); MIC [23]: 6.25 µg/mL (≈ 21 µM); MIC [24]: 0.79 µg/mL (≈ 2.65 µM); MIC [25]: 1.56 µg/mL (≈ 5.23 µM)
[C-]#[N+]C12CC3(/C=C/C(=O)Nc4ccc(O)cc4)OC3C1O2 (stereo not shown) [compound 56] | 1.56 µg/mL (≈ 5.49 µM) | 6.25 µg/mL (≈ 22 µM) | 1.56 µg/mL (≈ 5.49 µM) | 25 µg/mL (≈ 87.9 µM) | 25 µg/mL (≈ 87.9 µM) | 25 µg/mL (≈ 87.9 µM) | 1.56 µg/mL (≈ 5.49 µM) | 12.5 µg/mL (≈ 44 µM) | 6.25 µg/mL (≈ 22 µM) | 3.13 µg/mL (≈ 11 µM) | 3.13 µg/mL (≈ 11 µM) | 6.25 µg/mL (≈ 22 µM) | 50 µg/mL (≈ 176 µM) | 12.5 µg/mL (≈ 44 µM) | > 200 µg/mL | > 200 µg/mL | > 200 µg/mL | 1.56 µg/mL (≈ 5.49 µM) | 12.5 µg/mL (≈ 44 µM) | 3.13 µg/mL (≈ 11 µM) | MIC (Proteus vulgaris HX-19): 1.56 µg/mL (≈ 5.49 µM); MIC [19]: 3.13 µg/mL (≈ 11 µM); MIC [20]: > 200 µg/mL; MIC (Enterobacter cloacae 963): 200 µg/mL (≈ 704 µM); MIC [21]: 0.78 µg/mL (≈ 2.74 µM); MIC [22]: 3.13 µg/mL (≈ 11 µM); MIC [23]: 50 µg/mL (≈ 176 µM); MIC [24]: 25 µg/mL (≈ 87.9 µM); MIC [25]: 50 µg/mL (≈ 176 µM)
